Where two headings read alike, the source gives them in different places.
Legend:
[1] = target: T1, EGFR L858R/T790M/C797S (BaF3-LTC cells) (Homo sapiens, UniProt P00533, C797S/L858R/T790M); assay: EGFR degradation HTRF assay, BaF3-LTC cells; assay type: cell-based
T1 construct: expressed in transfected cells; host or cells: BaF3
In short: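 Cells treated 16 h at 37 °C, 5% CO2 in medium with 0.2% DMSO; top final concentration 10 uM, 5-fold dilution, 8 doses. Lysates read by HTRF (665/620 nm); degradation % versus DMSO high control, DC50 from four-parameter fit, Dmax as maximal degradation.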

[2] = system: EGFR Del19/T790M/C797S (H1975-clone #28); assay: EGFR degradation HTRF assay, H1975-clone #28 DTC cells; assay type: cell-based
In short: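 Read-out is an HTRF EGFR signal (337 nm excitation, 665/620 nm) from lysates of mutant-EGFR H1975 clones in which only the exogenous EGFR survives knockout. Treatment ran 16h at 37° C. from 10 uM final downward in 5-fold steps. DC50 comes from a logistic fit and Dmax is the maximal degradation.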

[3] = BaF3-LTC cells; EGFR degradation, IC50 (DC50) from curve fit; read-out: DC50(nM) BaF3-LTC
[4] = BaF3-LTC cells; maximum percentage of inhibition (degradation); read-out: Dmax (%) BaF3-LTC
[5] = H1975 # 28 DTC cells; EGFR degradation, IC50 (DC50) from curve fit; read-out: DC50(nM) H1975 # 28 DTC
[6] = H1975 # 28 DTC cells; maximum percentage of inhibition (degradation)
[7] = read-out: DC50(nM) BaF3-LTC; BaF3-LTC cells; EGFR degradation, IC50 (DC50) from curve fit
[8] = read-out: Dmax (%) BaF3-LTC, BaF3-LTC cells; maximum percentage of inhibition (degradation)
[9] = read-out: DC50(nM) H1975 # 28 DTC; H1975 # 28 DTC cells; EGFR degradation, IC50 (DC50) from curve fit

T1 sequence (P00533 25-1210 T790M/C797S/L858R): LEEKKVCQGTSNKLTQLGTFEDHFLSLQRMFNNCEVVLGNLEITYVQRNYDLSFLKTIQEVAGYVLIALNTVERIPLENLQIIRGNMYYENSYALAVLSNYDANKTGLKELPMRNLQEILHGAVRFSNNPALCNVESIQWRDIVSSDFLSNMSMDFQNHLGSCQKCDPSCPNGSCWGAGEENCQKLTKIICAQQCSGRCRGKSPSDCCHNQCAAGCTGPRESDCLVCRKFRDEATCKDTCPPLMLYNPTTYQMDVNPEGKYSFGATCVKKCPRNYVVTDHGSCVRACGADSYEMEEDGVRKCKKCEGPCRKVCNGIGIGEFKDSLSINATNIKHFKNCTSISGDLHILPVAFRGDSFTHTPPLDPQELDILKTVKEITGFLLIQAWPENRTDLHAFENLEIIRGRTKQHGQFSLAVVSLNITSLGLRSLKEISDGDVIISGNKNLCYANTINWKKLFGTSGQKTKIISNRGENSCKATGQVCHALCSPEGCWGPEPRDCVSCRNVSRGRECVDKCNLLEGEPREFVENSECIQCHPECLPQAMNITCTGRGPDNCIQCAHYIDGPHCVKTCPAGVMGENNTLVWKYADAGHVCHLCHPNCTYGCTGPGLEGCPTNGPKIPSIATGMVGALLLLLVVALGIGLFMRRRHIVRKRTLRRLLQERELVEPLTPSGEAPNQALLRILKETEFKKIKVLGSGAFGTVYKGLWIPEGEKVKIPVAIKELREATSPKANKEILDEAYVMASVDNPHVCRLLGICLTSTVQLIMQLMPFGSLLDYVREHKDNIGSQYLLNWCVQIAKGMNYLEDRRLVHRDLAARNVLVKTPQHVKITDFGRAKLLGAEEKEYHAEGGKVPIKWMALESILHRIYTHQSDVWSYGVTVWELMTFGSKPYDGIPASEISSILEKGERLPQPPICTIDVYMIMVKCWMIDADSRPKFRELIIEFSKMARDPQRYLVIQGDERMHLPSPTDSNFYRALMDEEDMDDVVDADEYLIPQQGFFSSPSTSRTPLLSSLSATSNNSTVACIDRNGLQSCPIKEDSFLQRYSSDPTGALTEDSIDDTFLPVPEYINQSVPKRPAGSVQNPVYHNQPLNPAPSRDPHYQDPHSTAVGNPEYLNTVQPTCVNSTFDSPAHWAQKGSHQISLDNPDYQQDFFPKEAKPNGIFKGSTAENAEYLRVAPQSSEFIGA

SMILES	DC50 [1, 3]	Dmax [1, 4]	DC50 [2, 5]	Dmax (%) H1975 # 28 DTC [2, 6]	DC50 [1, 7]	Dmax [1, 8]	DC50 [2, 9]
CCOc1cc(N2CCC(N3CCN(CC4CN(c5cc(F)cc6c5n(C)c(=O)n6C5CCC(=O)NC5=O)C4)CC3)CC2)c(CC)cc1Nc1ncc(Br)c(Nc2ccc3nc(CC)ccc3c2P(C)(C)=O)n1 (stereo not shown) [Example 467, 3-(4-(3-((4-(1-(4-((5-bromo-4-((5-(dimethylphosphoryl)-2-ethylquinolin-6-yl)amino)pyrimidin-2-yl)amino)-5-ethoxy-2-ethylphenyl)piperidin-4-yl)piperazin-1-yl)methyl)azetidin-1-yl)-6-fluoro-3-methyl-2-oxo-2,3-dihydro-1H-benzo[d]imidazol-1-yl)piperidine-2,6-dione]	12.5 nM	91.3%	1.83 nM	76.06%	–	–	–
CCOc1cc(N2CCC(N3CCN(C[C@@H]4CCN(c5cccc6c5oc(=O)n6C5CCC(=O)NC5=O)C4)CC3)CC2)c(CC)cc1Nc1ncc(Br)c(Nc2ccc3c(=O)n(CC)ncc3c2P(C)(C)=O)n1 (stereo partly drawn) [Example 623, 3-(7-((S)-3-((4-(1-(4-((5-bromo-4-((5-(dimethylphosphoryl)-2-ethyl-1-oxo-1,2-dihydrophthalazin-6-yl)amino)pyrimidin-2-yl)amino)-5-ethoxy-2-ethylphenyl)piperidin-4-yl)piperazin-1-yl)methyl)pyrrolidin-1-yl)-2-oxobenzo[d]oxazol-3(2H)-yl)piperidine-2,6-dione]	17.1 nM	92%	1.31 nM	75.76%	–	–	–
CCOc1cc(N2CCC(N3CCN(CCCc4cc(F)cc5c4oc(=O)n5C4CCC(=O)NC4=O)CC3)CC2)c(CC)cc1Nc1ncc(Br)c(Nc2ccc3nc(CC)ncc3c2P(C)(C)=O)n1 (stereo not shown) [Example 564, 3-(7-(3-(4-(1-(4-((5-bromo-4-((5-(dimethylphosphoryl)-2-ethylquinazolin-6-yl)amino)pyrimidin-2-yl)amino)-5-ethoxy-2-ethylphenyl)piperidin-4-yl)piperazin-1-yl)propyl)-5-fluoro-2-oxobenzo[d]oxazol-3(2H)-yl)piperidine-2,6-dione]	–	–	–	81.87%	7.34 nM	93.9%	1.04 nM
CCc1ccc2c(P(C)(C)=O)c(Nc3nc(Nc4cc(CC)c(N5CCC(N6CCN(C(=O)Cc7ccc8c(c7)oc(=O)n8C7CCC(=O)NC7=O)CC6)CC5)cc4OC)ncc3Br)ccc2n1 (stereo not shown) [Example 669, 3-(6-(2-(4-(1-(4-((5-bromo-4-((5-(dimethylphosphoryl)-2-ethylquinolin-6-yl)amino)pyrimidin-2-yl)amino)-2-ethyl-5-methoxyphenyl)piperidin-4-yl)piperazin-1-yl)-2-oxoethyl)-2-oxobenzo[d]oxazol-3(2H)-yl)piperidine-2,6-dione]	–	–	–	73.26%	4.06 nM	91.1%	0.59 nM
CCOc1cc(N2CCC(N3CCN(CCc4cc(F)c([C@H]5CCC(=O)NC5=O)c(F)c4)CC3)CC2)c(CC)cc1Nc1ncc(Br)c(Nc2ccc3nc(CC)c(F)cc3c2P(C)(C)=O)n1 [Example 588, (R)-3-(4-(2-(4-(1-(4-((5-bromo-4-((5-(dimethylphosphoryl)-2-ethyl-3-fluoroquinolin-6-yl)amino)pyrimidin-2-yl)amino)-5-ethoxy-2-ethylphenyl)piperidin-4-yl)piperazin-1-yl)ethyl)-2,6-difluorophenyl)piperidine-2,6-dione]	18.4 nM	87.5%	1.94 nM	84.46%	–	–	–
CCc1cc(Nc2ncc(Br)c(Nc3ccc4nc(C)ccc4c3P(C)(C)=O)n2)c(OC)cc1N1CCC(N2CCN(CCC3CN(c4cccc5c4CN(C4CCC(=O)NC4=O)C5=O)C3)CC2)CC1 (stereo not shown) [Example 692, 3-(4-(3-(2-(4-(1-(4-((5-bromo-4-((5-(dimethylphosphoryl)-2-methylquinolin-6-yl)amino)pyrimidin-2-yl)amino)-2-ethyl-5-methoxyphenyl)piperidin-4-yl)piperazin-1-yl)ethyl)azetidin-1-yl)-1-oxoisoindolin-2-yl)piperidine-2,6-dione]	6.68 nM	91.4%	0.593 nM	73%	–	–	–
CCOc1cc(N2CCC(N3CCN(CC4CCN(c5cccc6c5oc(=O)n6C5CCC(=O)NC5=O)CC4)CC3)CC2)c(CC)cc1Nc1ncc(Br)c(Nc2ccc3nc(CC)ccc3c2P(C)(C)=O)n1 (stereo not shown) [Example 581, 3-(7-(4-((4-(1-(4-((5-bromo-4-((5-(dimethylphosphoryl)-2-ethylquinolin-6-yl)amino)pyrimidin-2-yl)amino)-5-ethoxy-2-ethylphenyl)piperidin-4-yl)piperazin-1-yl)methyl)piperidin-1-yl)-2-oxobenzo[d]oxazol-3(2H)-yl)piperidine-2,6-dione]	6.9 nM	88.5%	1.36 nM	72.5%	–	–	–
CCOc1cc(N2CCC(N3CCN(CCc4c(C)c(F)cc5c4oc(=O)n5C4CCC(=O)NC4=O)CC3)CC2)c(CC)cc1Nc1ncc(Br)c(Nc2cc(F)c3nc(CC)ccc3c2P(C)(C)=O)n1 (stereo not shown) [Example 593, 3-(7-(2-(4-(1-(4-((5-bromo-4-((5-(dimethylphosphoryl)-2-ethyl-8-fluoroquinolin-6-yl)amino)pyrimidin-2-yl)amino)-5-ethoxy-2-ethylphenyl)piperidin-4-yl)piperazin-1-yl)ethyl)-5-fluoro-6-methyl-2-oxobenzo[d]oxazol-3(2H)-yl)piperidine-2,6-dione]	13.2 nM	82.6%	1.26 nM	76.9%	–	–	–
CCc1ccc2c(P(C)(C)=O)c(Nc3nc(Nc4cc(CC)c(N5CCC(N6CCN(CCCc7ccc8c(c7)oc(=O)n8C7CCC(=O)NC7=O)CC6)CC5)cc4OC)ncc3Br)ccc2n1 (stereo not shown) [Example 456, 3-(6-(3-(4-(1-(4-((5-bromo-4-((5-(dimethylphosphoryl)-2-ethylquinolin-6-yl)amino)pyrimidin-2-yl)amino)-2-ethyl-5-methoxyphenyl)piperidin-4-yl)piperazin-1-yl)propyl)-2-oxobenzo[dloxazol-3(2H)-yl)piperidine-2,6-dione]	3.56 nM	89.9%	0.621 nM	71.36%	–	–	–
CCOc1cc(N2CCC(N3CCN(CCc4cc(F)c([C@H]5CCC(=O)NC5=O)c(F)c4)CC3)CC2)c(CC)cc1Nc1ncc(Br)c(Nc2cc(F)c3ncc(C)cc3c2P(C)(C)=O)n1 [Example 672, (R)-3-(4-(2-(4-(1-(4-((5-bromo-4-((5-(dimethylphosphoryl)-8-fluoro-3-methylquinolin-6-yl)amino)pyrimidin-2-yl)amino)-5-ethoxy-2-ethylphenyl)piperidin-4-yl)piperazin-1-yl)ethyl)-2,6-difluorophenyl)piperidine-2,6-dione]	6.6 nM	86.9%	0.723 nM	87.05%	–	–	–
CCOc1ccc2c(P(C)(C)=O)c(Nc3nc(Nc4cc(CC)c(N5CCC(N6CCN(C(=O)[C@@H]7CCN(c8cc(F)c([C@H]9CCC(=O)NC9=O)c(F)c8)C7)CC6)CC5)cc4OC)ncc3Br)ccc2n1 [Example 677, (R)-3-(4-((R)-3-(4-(1-(4-((5-bromo-4-((5-(dimethylphosphoryl)-2-ethoxyquinolin-6-yl)amino)pyrimidin-2-yl)amino)-2-ethyl-5-methoxyphenyl)piperidin-4-yl)piperazine-1-carbonyl)pyrrolidin-1-yl)-2,6-difluorophenyl)piperidine-2,6-dione]	38 nM	94.3%	3.83 nM	77.05%	–	–	–
CCOc1cc(N2CCC(N3CCN(CCc4cc(F)cc5c4oc(=O)n5C4CCC(=O)NC4=O)CC3)CC2)c(CC)cc1Nc1ncc(Br)c(Nc2ccc3nc(CC)ccc3c2P(C)(C)=O)n1 (stereo not shown) [Example 472, 3-(7-(2-(4-(1-(4-((5-bromo-4-((5-(dimethylphosphoryl)-2-ethylquinolin-6-yl)amino)pyrimidin-2-yl)amino)-5-ethoxy-2-ethylphenyl)piperidin-4-yl)piperazin-1-yl)ethyl)-5-fluoro-2-oxobenzo[d]oxazol-3(2H)-yl)piperidine-2,6-dione]	19.6 nM	86.9%	0.945 nM	80.01%	–	–	–
CCc1cc(Nc2ncc(Br)c(Nc3ccc4c(=O)n(C5CC5)ncc4c3P(C)(C)=O)n2)c(OC)cc1N1CCC(N2CCN(CCC3CCN(c4cc(F)c([C@H]5CCC(=O)NC5=O)c(F)c4)CC3)CC2)CC1 [Example 578, (R)-3-(4-(4-(2-(4-(1-(4-((5-bromo-4-((2-cyclopropyl-5-(dimethylphosphoryl)-1-oxo-1,2-dihydrophthalazin-6-yl)amino)pyrimidin-2-yl)amino)-2-ethyl-5-methoxyphenyl)piperidin-4-yl)piperazin-1-yl)ethyl)piperidin-1-yl)-2,6-difluorophenyl)piperidine-2,6-dione]	12.2 nM	96.5%	3.11 nM	87.5%	–	–	–
